One may read the IC50 as the point on the concentration scale where inhibition reaches its midpoint.

The target in one data set is Myc/Max binding to DNA (Homo sapiens, UniProt P01106). Description: Electrophoretic mobility shift assay (EMSA) of Myc/Max binding to DNA. It is filed as biochemical. To be noted: for remaining activity at 100 µM / remaining activity at 200 µM / remaining activity at 50 µM: EMSA; for remaining activity at 100 µM: 100 uM test compound, read-out: Bound DNA (%) (100uM); for remaining activity at 200 µM: 200 uM test compound, read-out: Bound DNA (%) (200uM); for remaining activity at 50 µM: 50 uM test compound, read-out: Bound DNA (%) (50uM). In outline:
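Electrophoretic mobility shift assay of Myc/Max binding to DNA. Compounds tested at 200 μM, 100 μM and 50 μM.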
A general note: A gel shift assay detects complexes by their altered migration in electrophoresis.

In data set [1] the test system is DNA damage (rH2AX staining). Description: rH2AX staining assay for DNA damage. It is filed as cell-based. Here is the method: Min9 (NUCC-0176234) was also tested for its ability to cause DNA damage in an rH2AX staining assay. We would not expect cMyc-targeting agents to produce significant DNA damage. Compounds that act directly against DNA such as doxorubicin do however. […] (See FIG. 6).

Data set [2] relates to cMyc wild-type (WT) and a cMyc KO line. Description: Cell viability assay against cMyc WT and cMyc KO line. Particulars: FIG. 4. It is filed as cell-based. Here is the method:
Min9 (NUCC-0176234) was also tested in a cell viability assay against a cMyc wild-type (WT) and a cMyc KO line.

The nature of data set [3]: In vitro metabolism with mouse liver microsomes and mouse S9 fraction. In kind it is in vitro ADME. Particulars: compared with NUCC-176248. Here is the method: In vitro metabolism of NUCC-176242 and NUCC-176248 were tested using mouse liver microsomes and a mouse S9 fraction.
Background: Liver microsomes are vesicles of endoplasmic reticulum, rich in cytochrome P450 enzymes.

A short description of data set [4]: Pharmacokinetics in mice after intravenous dosing. It is filed as in vivo. Particulars: 5 mg/kg intravenously. Here is the method:
The pharmacokinetics of NUCC-176242 and NUCC-176248 were studied in mice by administering a dose of 5 mg/kg intravenously and measuring the plasma concentration versus time.

The test system of data set [5] is wild type and Myc knockout rat fibroblasts. Description: Growth inhibition on wild type and Myc knockout rat fibroblasts. In kind it is cell-based. To be noted: FIG. 3; for selectivity of growth inhibition for Myc WT over Myc KO cells: wild type vs Myc knockout rat fibroblasts. The source says:
We tested the top 13 active compounds in the first screen assay. […] More than half of the tested compounds show better growth inhibitory effect on Myc WT compared to Myc KO cells.

Chain of Myc/Max binding to DNA (P01106 whole entry): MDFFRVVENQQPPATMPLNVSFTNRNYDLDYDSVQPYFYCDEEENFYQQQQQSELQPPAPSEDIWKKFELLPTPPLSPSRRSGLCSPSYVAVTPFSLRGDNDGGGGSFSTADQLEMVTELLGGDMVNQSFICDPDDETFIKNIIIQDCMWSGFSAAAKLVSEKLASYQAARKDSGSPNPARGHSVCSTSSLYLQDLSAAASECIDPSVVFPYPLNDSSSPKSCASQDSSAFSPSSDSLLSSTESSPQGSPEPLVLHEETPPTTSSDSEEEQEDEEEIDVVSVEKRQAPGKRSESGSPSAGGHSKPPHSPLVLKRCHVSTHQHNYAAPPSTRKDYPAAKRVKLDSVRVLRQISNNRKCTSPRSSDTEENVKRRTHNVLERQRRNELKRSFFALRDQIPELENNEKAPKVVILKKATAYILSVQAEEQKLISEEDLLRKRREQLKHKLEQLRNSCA

For `CCc1ccc(Oc2c[nH]nc2-c2ccc(OCc3cnn(-c4ccccc4)c3)cc2O)cc1` [NUCC-0176234], at Myc/Max binding to DNA, the half-maximal inhibitory concentration (IC50) was determined as 123 µM, the remaining activity at 100 µM turned out to be 79% and the remaining activity at 200 µM was found to be 10%. The DNA damage result in data set [1] is given as “essentially no DNA damage”. Also, the “reduction of cell viability, WT vs KO line” value in data set [2] is “reduces cell viability much more in the WT line than the KO cells”.
As to `CCc1ccc(Oc2c(-c3ccc(OCc4ccc(Cl)cc4)cc3O)n[nH]c2C(F)(F)F)cc1` [NUCC-0176242], on Myc/Max binding to DNA, the IC50 stood at 89 µM, the remaining activity at 100 µM amounted to 36% and the remaining activity at 200 µM was 2%. Moreover, the “metabolism by mouse S9 fraction” value in data set [3] was “significantly metabolism by the mouse S9 fraction versus NUCC-176248”. The “in vivo metabolism (plasma concentration versus time)” value in data set [4] was “correlated well with the observed in vitro metabolism”.
As to `CCc1ccc(Oc2c(-c3ccc(OCc4ccc(Cl)cc4)cc3O)nn(C)c2C(F)(F)F)cc1` [NUCC-0176248], in data set [5], the “effective concentration (dose with the greatest selectivity, growth inhibition Myc WT vs KO)” value was 6 µM and the “selectivity of growth inhibition for Myc WT over Myc KO cells” value is recorded as “high specificity”. Besides, on Myc/Max binding to DNA, the IC50 came out at 96 µM, the remaining activity at 100 µM was found to be 49% and the remaining activity at 200 µM is 6%. Further, the “in vivo metabolism (plasma concentration versus time)” value in data set [4] is “correlated well with the observed in vitro metabolism”.
On to `CCc1ccc(Oc2c(-c3ccc(OCc4ccncc4)cc3O)n[nH]c2C(F)(F)F)cc1` [NUCC-0176250], for which, in data set [5], the “effective concentration (dose with the greatest selectivity, growth inhibition Myc WT vs KO)” value stood at 50 µM and the “selectivity of growth inhibition for Myc WT over Myc KO cells” value is “great selectivity”. Also, the remaining activity at 200 µM on Myc/Max binding to DNA stood at 57%.
`Cn1nc(C(F)(F)F)c(-c2ccc(F)c(C(F)(F)F)c2)c1-c1ccc(OCc2ccc(Cl)cc2)cc1O` [compound 0200735]: on Myc/Max binding to DNA, the remaining activity at 50 µM was 84% and the remaining activity at 100 µM stood at 60%.
In the case of `Cn1nc(-c2ccc(OCc3ccc(Cl)cc3)cc2O)c(-c2ccc(F)c(C(F)(F)F)c2)c1C(F)(F)F` [compound 0200736], on Myc/Max binding to DNA, the remaining activity at 100 µM came out at 86%.
On to `Oc1cc(OCc2ccc(Cl)cc2)ccc1-c1n[nH]c(C(F)(F)F)c1-c1ccc(C(F)(F)F)cc1Cl` [compound 0200737], for which, on Myc/Max binding to DNA, the remaining activity at 100 µM was 76%.
On to `Cn1nc(C(F)(F)F)c(-c2ccc(C(F)(F)F)cc2Cl)c1-c1ccc(OCc2ccc(Cl)cc2)cc1O` [compound 0200738], for which, at Myc/Max binding to DNA, the remaining activity at 50 µM stood at 91% and the remaining activity at 100 µM was found to be 18%.
In the case of `CCc1c(C(F)(F)F)n[nH]c1-c1ccc(OCc2ccc(Cl)cc2)cc1O` [compound 0200739], the remaining activity at 100 µM on Myc/Max binding to DNA came out at 78%.
As to `CCCc1c(C(F)(F)F)n[nH]c1-c1ccc(OCc2ccc(Cl)cc2)cc1O` [compound 0200740], on Myc/Max binding to DNA, the remaining activity at 50 µM stood at 93% and the remaining activity at 100 µM was determined as 75%.
For the molecule `Cn1cc(C(F)(F)F)c(-c2ccc(OCc3ccc(Cl)cc3)cn2)n1` [compound 0200741], the remaining activity at 100 µM on Myc/Max binding to DNA was 103%.
`Cn1cc(C(F)(F)F)c(-c2ccc(NCc3ccc(Cl)cc3)cn2)n1` [compound 0200742]: on Myc/Max binding to DNA, the remaining activity at 100 µM was 99%.
On to `Cn1cc(C(F)(F)F)c(-c2ccc(OCc3ccc(Cl)cc3)cc2F)n1` [compound 0200743], for which, on Myc/Max binding to DNA, the remaining activity at 100 µM was determined as 101%.
Consider `Cn1nc(C(F)(F)F)cc1-c1ccc(OCc2ccc(Cl)cc2)cc1Cl` [compound 0200744], for which, at Myc/Max binding to DNA, the remaining activity at 100 µM was 62%.
On the same count and under the same terms, the value for `Cn1nc(C(F)(F)F)cc1-c1ccc(OCc2ccc(Cl)cc2)cc1N` [compound 0200745] was 105%.
On the same count and under the same terms, as for `Cn1cc(-c2ccc(OCc3ccc(Cl)cc3)cc2N)c(C(F)(F)F)n1` [compound 0200746], the figure is 101%; as for `Cn1cc(C(F)(F)F)c(-c2cnc(OCc3ccc(Cl)cc3)cn2)n1` [compound 0200747], 105%.

These data come from patent US20170253581A1, “SUBSTITUTED HETEROCYCLES AS c-MYC TARGETING AGENTS” (Northwestern University, priority 2016, published 2017).
